Reference: patent publication US20230096663A1, “FARNESOID X RECEPTOR MODULATING COMPOUNDS AND METHODS OF USING THE SAME” (Inorbit Therapeutics AB, priority 2020, published 2023)

Tests used:
[1] = tested on: STAM model NASH mice; test: In-vivo efficacy in STAM model of non-alcoholic steatohepatitis; settings: oral once daily for three weeks, 0.3, 1 or 3 mg/kg
Method: NASH was induced in male mice by a single subcutaneous injection of 200 μg streptozotocin (STZ, Sigma-Aldrich, USA) solution 2 days after birth and feeding with high fat diet (HFD, 57 kcal % fat, Cat #HFD32, CLEA Japan, Inc., Japan) after 4 weeks of age. NASH model mice were randomized into groups of 8 mice at 6 weeks of age based on their body weight the day before the start of treatment. The compound of Example 2 was then administered orally in a volume of 10 ml/kg at dose levels 0.3 mg/kg, 1 mg/kg and 3 mg/kg once daily for 3 weeks. […] NAFLD Activity score (NAS) was calculated according to the criteria of Kleiner (Kleiner D E. et al., Hepatology, 2005; 41:1313). […] For quantitative analysis of fibrosis area, bright field images of Sirius red-stained sections were captured around the central vein using a digital camera (DFC295; Leica, Germany) at 200-fold magnification, and the positive areas in 5 fields/section were measured using ImageJ software (National Institute of Health, USA). […] The score can be used to quantify changes in NAFLD during disease progression and on administration of potential therapeutics. In order to quantify the degree of fibrosis Sirius red stained liver sections were used to visualise and study collagen distribution.

[2] = Metabolism in human microsomes; format: in vitro ADME; settings: 37° C.
Method: Microsomal mixes (247.5 μL) of human microsomes (1250 μL, 4 mg/ml), potassium phosphate buffer (1250 μL), alamethecin (12.5 μL, 5 mg/ml) and cofactors Nicotinamide Adenine Dinucleotide Phosphate NADPH (1250 μL, 4 mM)/uridine 5′-diphospho-glucuronic acid UDPGA (1250 μL, 4 mM) or UDPGA only were loaded onto a shaker for 10 minutes. The test compound (2.5 μL, 100 μM) was then separately added to both microsomal mixes (i.e., one mix with NADPH and one mix without NADPH), incubated at 37° C. and sampled at predetermined time points. Analysis was performed using a AB SCIEX QTRAP 4500 LC-MS/MS, a Kinetex C18, 50*4.6 mm, 5 μm column and eluting with 10 mM Ammonium Acetate/Methanol.
Table 3 summarizes the % of compound remaining after 45 minutes of incubation with human microsomes either in the presence of co-factors UDPGA and NADPH or UDPGA only.

[3] = Metabolic identification in human hepatocytes; format: in vitro ADME
Method: (§1) A 10 mM stock of test compound from Example 2 (sodium 2-(3-((5-cyclopropyl-3-(2-(trifluoromethoxy)phenyl)isoxazol-4-yl)methoxy)-8-azabicyclo[3.2.1]octan-8-yl)-4-fluorobenzo[d]thiazole-6-sulfinate) was prepared in DMSO. 20 μM of final working stock was then prepared by diluting 4 μL of 10 mM stock in 1996 μL of Krebs-Hensleit buffer. 200 μL of hepatocyte cell suspension (2×10^6 cells/mL) was added to TPP 48 well plate and preincubated for 30 min @ 37° C. in incubator. 200 μL of 20 μM working stock of test compound was added to the cell suspension and incubated in an incubator on vibramax at a shaking speed of 500 rpm. For the 0 min sample, 25 μL of hepatocyte suspension was precipitated with 200 μL of acetonitrile and 25 μL of 20 μM test compound was added. The reaction was stopped at 15, 30, 60, 90, 120 min by precipitating 50 μL of incubation mixture with 200 μL of acetonitrile. The samples were vortexed for 5 min at 1200 rpm and centrifuged at 4000 rpm for 10 min. The supernatant was separated, diluted 2 fold with water and analysed using a HPLC (Shimadzu SIL HTS) and mass spectrometer (5500 Qtrap). Acetonitrile and 0.1% formic acid in Milli-q-water were used as the mobile phase, using a column of either Waters Xbridge C18, 250×3.0 mm, 5.0μ particle size or Phenomnex kinetex 5μ EVO C18 100 A, 50×4.6 mm 5.0μ particle size.
Table 4 summarizes the major metabolites observed when the compound of Example 2 of the invention was incubated in human, dog or mouse hepatocytes.

[4] = Metabolic identification in dog hepatocytes; format: in vitro ADME; settings: up to 120 min
Method: as §1, with “size. […]” for “size.”

[5] = Metabolic identification in mouse hepatocytes; format: in vitro ADME; settings: up to 120 min
Method: as §1, with “size. […]” for “size.”

[6] = tested on: HFHC fed male C57BL/6 mice; test: In-vivo efficacy in high fat high cholesterol diet (HFHC) fed male C57BL/6 mice; settings: oral, 3 mg/kg BID, 3 mg/kg QD and 10 mg/kg BID, after 28 days
Method: C57BL/6J male mice were purchased at the age of 8 weeks. After an acclimation period of 1 week, animals were maintained on high fat high cholesterol diet (Research diets) with 60% kcal from fat plus 0.5% (w/w) extra cholesterol (Research diet, D02051401) for a period of 4 weeks. Age matched control animals (n=6) were maintained on normal chow. Mice were dosed with vehicle, test compounds and GW4064 morning (7.00 AM) and evening (5:00 PM) from day 0 to 27. At 28th day, animals were dosed at 7:00 AM and kept on fasting for next 4 hours before blood and tissues collection. Plasma samples separated from collected blood were stored at −20° C. immediately for estimation analysis. The samples were analyzed using the Siemens Dimension RxL Max Clinical chemistry analyzer.
Right liver lobe was used for the test compounds exposure, triglyceride and cholesterol estimation. Liver tissues were dissected, weighed and snap frozen and stored at −80° C. for further analysis of hepatic triglyceride, cholesterol and compound exposure. In brief, stored tissues were thawed to room temperature and triglycerides were extracted by homogenizing 25 mg of liver tissues in 1 ml of 5% Triton X100 (Lot No. 61K01741-Sigma Aldrich) in water. Homogenized tissues were slowly heated to 80° C. in water bath for 5 minutes. The samples were cooled down and again heated to solubilize all the triglycerides into solution. The samples were centrifuged for 5 minutes at 4000 RPM and supernatant was collected for quantification^3 using commercially available kit from ERBA (Lot No. B061832).
Homogenized samples were centrifuge at 13000 g for 10 minutes to remove insoluble material. The organic phase was separated into new tube and air dried at 50° C. to remove chloroform. Thereafter, samples were vacuumed for 30 minutes to remove residue organic solvent. Dried lipids were dissolved in 200 μL of cholesterol assay buffer (provided with Sigma cholesterol assay kit Lot No. B2J210603V), sonicated for 20 minutes and vortexed until mixture was homogenous as mentioned in kit protocol. Samples were diluted with cholesterol assay buffer at (1:10) ratio to fit in standard curve and finally 50 μL of diluted samples were used for the assay.
Compound levels were also measured in the plasma and liver to understand its distribution profile.

O=S([O-])c1cc(F)c2nc(N3[C@@H]4CC[C@H]3C[C@@H](OCc3c(-c5ccccc5OC(F)(F)F)noc3C3CC3)C4)sc2c1.[Na+] [Example 2, Sodium 2-(3-((5-cyclopropyl-3-(2-(trifluoromethoxy)phenyl)isoxazol-4-yl)methoxy)-8-azabicyclo[3.2.1]octan-8-yl)-4-fluorobenzo[d]thiazole-6-sulfinate]
Fibrosis area (Sirius red positive area) [1]: Significant reductions
NAFLD Activity score (NAS) [1]: Significant reductions
% remaining @ 45 mins of incubation with UDPGA ([2]; co-factor UDPGA only): 94%
% remaining @ 45 mins of incubation with UDPGA and NADPH ([2]; co-factors UDPGA and NADPH): 52%
Major metabolite by MS/MS (FIG. 14) ([3]; 120 mins): hydroxy compound
Acyl-Glucuronide ([3]; up to 120 min): No
Observed Major Metabolites ([3]; up to 120 min): Hydroxy, Alkenyl and Alkenyl-hydroxy
Acyl-Glucuronide [4]: No
Acyl-Glucuronide [5]: No
Observed Major Metabolites [5]: Hydroxy, Di-hydroxy and Alkenyl-hydroxy
Cholesterol levels in the liver [6]: reductions
Cholesterol levels in the plasma [6]: reductions
Liver triglycerides [6]: reductions
